US11446290B2, “Treatment of pain with serotonin-3 receptor agonist” (priority 2017, dated 2022)

How the values were obtained:
Format in all cases: in vivo
Male ddY mice [1] = assay: Experiment 1: therapeutic effects on pain, foot licking and biting after formalin administration
Male ddY mice [2] = assay: Experiment 3: therapeutic effects on pain derived from an emotional component (conditioned pain, saline injection at day 4); details: for therapeutic effect on pain derived from an emotional component: foot licking of uninjected foot and biting for 5 minutes, FIG. 3; for therapeutic effects on pain derived from an emotional component: experiments using a similar method, dose not given
Male ddY mice [3] = assay: Experiment 4: effect on amount of activity (supermex); details: measured for 5 minutes after 30 minutes, FIG. 4
From the text: The following Experiments 1 to 5 have been carried out according to the method described in literatures (M Nakamura-Kitamura et al. Brain Research 1406 (2011), 8-17; and M Nakamura-Kitamura et al. Pain Research 27 (2012), 153-164) with minor modifications.
Male ddY mice of 5 weeks old (Japan SLC) were used in the experiments. Regarding the environment context as external senses and sensory stimuli such as tactile sense, visual sense, and feeling, a black cylindrical polypropylene box (diameter: 9.5 cm, height: 7 cm, with a round petri dish having a diameter of 8.5 cm at the bottom) and a translucent polypropylene box (14 cm (length)×9.5 cm (width)×5 cm (height), with a reticular plate at the floor) were used.
In order to study the effect of Compound A on the amount of activity, Compound A (5 mg/kg or 10 mg/kg) or vehicle (i.e., saline comprising 5% DMSO) was intraperitoneally administered to each mouse, and after 30 minutes, the amount of activity of the mouse was measured for 5 minutes using supermex (Muromachi Kikai Co., Ltd.). In the experiment, the vehicle administration group consisted of 7 mice, the Compound A (5 mg/kg) administration group consisted of 7 mice, and the Compound A (10 mg/kg) administration group consisted of 6 mice.

Male ddY mice [4] = assay: Experiment 5: therapeutic effects on acute pain, formalin test phase 1 and phase 2; details: 1, 5, 10 mg/kg i.p. 30 minutes before formalin

SMILES: NC1CCN(c2cccc(Cl)n2)CC1 [Compound A, 1-(6-chloropyridin-2-yl)piperidin-4-amine]
- foot licking and biting caused by formalin (Male ddY mice [1]; 5 mg/kg intraperitoneally 30 minutes before formalin (0.67%, 20 μL), measured for 5 minutes, FIG. 1): significantly suppress
- therapeutic effect on pain compared to existing drugs (Male ddY mice [1]; mouse, in vivo): more excellent therapeutic effect on pain as compared to the existing drugs
- therapeutic effect on pain derived from an emotional component (Male ddY mice [2]; 5 mg/kg intraperitoneally 30 minutes before saline at day 4): very strong therapeutic effect
- therapeutic effect on pain derived from an emotional component (Male ddY mice [2]; 10 mg/kg intraperitoneally 30 minutes before saline at day 4): very strong therapeutic effect
- therapeutic effect on pain derived from an emotional component compared to each existing drug (Male ddY mice [2]; mouse, in vivo): significantly excellent therapeutic effect as compared to each existing drug
- effect on the amount of activity (Male ddY mice [3]; 5 mg/kg intraperitoneal): no effect
- effect on the amount of activity (Male ddY mice [3]; 10 mg/kg intraperitoneal): no effect
- foot licking and biting caused by formalin, phase 1 (Male ddY mice [4]; 0 to 5 minutes after formalin, FIG. 5): dose-dependently and significantly suppress
- foot licking and biting caused by formalin, phase 2 (Male ddY mice [4]; 5 to 30 minutes after formalin, FIG. 6): dose-dependently and significantly suppress

SMILES: Cl.N=C(N)NC(=N)Nc1cccc(Cl)c1 [Compound B, m-chlorophenylbiguanide hydrochloride]
- therapeutic effects on pain derived from an emotional component (Male ddY mice [2]): showed therapeutic effects

SMILES: Cl.N=C(N)NC(=N)Nc1ccccc1 [Compound C, 1-phenylbiguanide hydrochloride]
- therapeutic effects on pain derived from an emotional component (Male ddY mice [2]): showed therapeutic effects

SMILES: Cc1[nH]c2ccc(O)cc2c1CCN.Cl [Compound F, 2-methyl-5-hydroxytryptamine hydrochloride]
- therapeutic effects on pain derived from an emotional component (Male ddY mice [2]): showed therapeutic effects

SMILES: Cl.Cn1cc(C(=O)C(=O)N[C@H]2CN3CCC2CC3)c2ccccc21 [G, (R)—N-(1-azabicyclo[2.2.2]oct-3-yl)-2-(1-methyl-1H-indol-3-yl)-2-(1-methyl-1H-indol-3-yl)-2-oxoacetamide hydrochloride]
- therapeutic effects on pain derived from an emotional component (Male ddY mice [2]): showed therapeutic effects
